Molecular target: T1, HIV integrase (Human immunodeficiency virus type 1 group M subtype B, UniProt P12497, F1332H)
T1 construct: HIV integrase full length gene; made in house; host or cells: Escherichia coli BL21(DE3)
Test: Determination of enzyme (HIV integrase) inhibitory activity
Assay type: biochemical, HIV (Human Immunodeficiency Virus (type 1))
Conditions: recombinant integrase protein (F185H), strand transfer plate assay, absorbance at 450 nm
Description: The following explains evaluation methods of the HIV integrase inhibitory activity of the compound of the present invention.
(i) Construction of Recombinant Integrase Gene Expression System
HIV integrase full length gene (J. Virol., 67, 425-437 (1993)) in which phenylalanine at codon 185 was substituted by histidine, was inserted between the restriction enzyme NdeI and XhoI sites of plasmid pET21a(+) (Novagen), whereby an integrase expression vector pET21a-IN-F185H was constructed.
(ii) Production and Purification of Integrase Protein
Escherichia coli recombinant BL21(DE3) transformed with plasmid pET21a-IN-F185H obtained in (i) was shake cultured at 30° C. in a liquid medium containing ampicillin. When the culture reached the logarithmic growth phase, isopropyl-β-D-thiogalactopyranoside was added to promote expression of integrase gene. The culture was continued for 3 hr to promote accumulation of the integrase protein. The recombinant E. coli was collected in pellets by centrifugal separation and preserved at −80° C.
The E. coli was suspended in Lysis buffer ([…] HEPES (pH 7.5), 5 mM DTT, 10 mM CHAPS, 10% glycerol) containing 1M sodium chloride and subjected to repeat pressurization and depressurization for rupture, and centrifugal separation at 4° C., 40,000×g, 60 min to recover a water-soluble fraction (supernatant). This was diluted 10-fold with Lysis buffer free of sodium chloride, mixed with SP-Sepharose (GE healthcare Bioscience) and stirred at 4° C. for 60 min to allow adsorption of integrase protein to the resin. The resin was washed with Lysis buffer containing 100 mM sodium chloride and the integrase protein was eluted with Lysis buffer containing 1M sodium chloride.
The eluted integrase protein solution was subjected to a Superdex 75 (GE healthcare Bioscience) column for gel filtration. The protein was eluted with Lysis buffer containing 1M sodium chloride.
The obtained fractions of the integrase protein were collected and preserved at −80° C.
(iii) Preparation of DNA Solution
The following DNA synthesized by Greiner or FASMAC was dissolved in TE buffer (10 mM Tris-hydrochloric acid (pH 8.0), 1 mM EDTA) and mixed with donor DNA, target DNA, and each complementary strand (+ and − strands) to 1 μM. The mixture was heated at 95° C. for 5 min, 80° C. for 10 min, 70° C. for 10 min, 60° C. for 10 min, 50° C. for 10 min and 40° C. for 10 min and kept at 25° C. to give a double stranded DNA, which was used for the test.
(iv) Determination of Enzyme (HIV Integrase) Inhibitory Activity
The donor DNA was diluted with TE buffer to 10 nM (or 5 nM), of which 50 μl was added to each well of streptavidin-coated microtiter plate (Roche) and allowed to adsorb at 37° C. for 60 min. The plate was washed with phosphate buffer (Dulbecco's PBS, Sanko Junyaku Co., Ltd.) containing 0.1% Tween 20 and phosphate buffer. Then, an enzyme reaction mixture (70 μl), a test substance (10 μl) diluted with the enzyme reaction mixture and 100 μg/ml (or 64 μg/ml (2 μM)) integrase protein (10 μl) were added to each well and reacted at 37° C. for 60 min.
Composition of the enzyme reaction mixture: 30 mM MOPS (3-morpholinopropanesulfonic acid), 5 mM magnesium chloride, 3 mM DTT (dithiothreitol), 0.1 mg/ml BSA (bovine serum albumin), 5% glycerol, 10% DMSO (dimethyl sulfoxide), 0.01% Tween 20.
Then, 50 nM (or 25 nM) target DNA (10 μl) was added, reacted at 37° C. for 10 min and washed with phosphate buffer containing 0.1% Tween 20 to stop the reaction.
Then, 100 mU/ml peroxidase labeled anti-digoxigenin antibody solution (Roche, 100 μl) was added, and the mixture was reacted at 37° C. for 60 min, followed by washing with phosphate buffer containing 0.1% Tween 20.
A peroxidase color solution (Bio Rad, 100 μl) was added and allowed to react at room temperature for 4 min (or 3 min). The color reaction was stopped by adding IN sulfuric acid (100 μl). The absorbance at 450 nm was measured. […]

SMILES | IC50 [µM]
CCc1cc2c(cc1Cc1cc(N3CCOCC3)cc(Cl)c1F)c(=O)c(C(=O)O)cn2[C@H](CO)COC [Example 20, 6-[3-chloro-2-fluoro-5-(morpholin-4-yl)benzyl]-7-ethyl-1-[(R)-2-hydroxy-1-(methoxymethyl)ethyl]-4-oxo-1,4-dihydroquinoline-3-carboxylic acid] | < 0.01
COc1cc2c(cc1Cc1cc(N3CCCS3(=O)=O)cc(Cl)c1F)c(=O)c(C(=O)O)cn2[C@H](CO)C(C)C [Example 21, 6-[3-chloro-5-(1,1-dioxoisothiazolidin-2-yl)-2-fluorobenzyl]-1-((S)-1-hydroxymethyl-2-methylpropyl)-7-methoxy-4-oxo-1,4-dihydroquinoline-3-carboxylic acid] | < 0.01
COC[C@@H](CO)n1cc(C(=O)O)c(=O)c2cc(Cc3cc(N4CCOCC4)cc(Cl)c3F)c(OC)cc21 [Example 22, 6-[3-chloro-2-fluoro-5-(morpholin-4-yl)benzyl]-1-[(R)-2-hydroxy-1-(methoxymethyl)ethyl]-7-methoxy-4-oxo-1,4-dihydroquinoline-3-carboxylic acid] | < 0.01
CCc1cc2c(cc1Cc1cc(N3CCOCC3)cc(Cl)c1F)c(=O)c(C(=O)O)cn2[C@H](CO)C(C)C [Example 23, 6-[3-chloro-2-fluoro-5-(morpholin-4-yl)benzyl]-7-ethyl-1-((S)-1-hydroxymethyl-2-methylpropyl)-4-oxo-1,4-dihydroquinoline-3-carboxylic acid] | < 0.01
CCc1cc2c(cc1Cc1cc(N3CCCC3=O)cc(Cl)c1F)c(=O)c(C(=O)O)cn2[C@H](CO)C(C)C [Example 24, 6-[3-chloro-2-fluoro-5-(2-oxopyrrolidin-1-yl)benzyl]-7-ethyl-1-((S)-1-hydroxymethyl-2-methylpropyl)-4-oxo-1,4-dihydroquinoline-3-carboxylic acid] | 0.01 to 0.1
COc1cc2c(cc1Cc1cc(N3CCCC3=O)c(F)c(Cl)c1F)c(=O)c(C(=O)O)cn2[C@H](CO)C(C)C [Example 25, 6-[3-chloro-2,4-difluoro-5-(2-oxopyrrolidin-1-yl)benzyl]-1-((S)-1-hydroxymethyl-2-methylpropyl)-7-methoxy-4-oxo-1,4-dihydroquinoline-3-carboxylic acid] | < 0.01
CCc1cc2c(cc1Cc1cc(N3CCCC3=O)c(F)c(Cl)c1F)c(=O)c(C(=O)O)cn2[C@H](CO)C(C)C [Example 26, 6-[3-chloro-2,4-difluoro-5-(2-oxopyrrolidin-1-yl)benzyl]-7-ethyl-1-((S)-1-hydroxymethyl-2-methylpropyl)-4-oxo-1,4-dihydroquinoline-3-carboxylic acid] | < 0.01
COc1cc2c(cc1Cc1cc(N3CCSCC3)cc(Cl)c1F)c(=O)c(C(=O)O)cn2[C@H](CO)C(C)C [Example 27, 6-[3-chloro-2-fluoro-5-(thiomorpholin-4-yl)benzyl]-1-((S)-1-hydroxymethyl-2-methylpropyl)-7-methoxy-4-oxo-1,4-dihydroquinoline-3-carboxylic acid] | < 0.01
COc1cc2c(cc1Cc1cc(N3CCOCC3)cc(Cl)c1F)c(=O)c(C(=O)O)cn2[C@H](CO)[C@H](C)OC [Example 28, 6-[3-chloro-2-fluoro-5-(morpholin-4-yl)benzyl]-1-((1R,2S)-1-hydroxymethyl-2-methoxypropyl)-7-methoxy-4-oxo-1,4-dihydroquinoline-3-carboxylic acid] | < 0.01
COCC[C@@H](CO)n1cc(C(=O)O)c(=O)c2cc(Cc3cc(N4CCOCC4)cc(Cl)c3F)c(OC)cc21 [Example 29, 6-[3-chloro-2-fluoro-5-(morpholin-4-yl)benzyl]-1-((S)-1-hydroxymethyl-3-methoxypropyl)-7-methoxy-4-oxo-1,4-dihydroquinoline-3-carboxylic acid] | < 0.01
COc1cc2c(cc1Cc1cc(N3CCC(O)CC3)cc(Cl)c1F)c(=O)c(C(=O)O)cn2[C@H](CO)C(C)C [Example 32, 6-[3-chloro-2-fluoro-5-(4-hydroxypiperidin-1-yl)benzyl]-1-((S)-1-hydroxymethyl-2-methylpropyl)-7-methoxy-4-oxo-1,4-dihydroquinoline-3-carboxylic acid] | < 0.01
CCc1cc2c(cc1Cc1cc(N3CCOCC3)cc(Cl)c1F)c(=O)c(C(=O)O)cn2[C@H](CO)[C@@H](C)OC [Example 34, 6-[3-chloro-2-fluoro-5-(morpholin-4-yl)benzyl]-7-ethyl-1-((1R,2R)-1-hydroxymethyl-2-methoxypropyl)-4-oxo-1,4-dihydroquinoline-3-carboxylic acid] | < 0.01
CCc1cc2c(cc1Cc1cc(N3CCOCC3)cc(Cl)c1F)c(=O)c(C(=O)O)cn2[C@H](CO)[C@H](C)OC [Example 35, 6-[3-chloro-2-fluoro-5-(morpholin-4-yl)benzyl]-7-ethyl-1-((1R,2S)-1-hydroxymethyl-2-methoxypropyl)-4-oxo-1,4-dihydroquinoline-3-carboxylic acid] | 0.01 to 0.1
COc1cc2c(cc1Cc1cc(-c3ccccn3)cc(Cl)c1F)c(=O)c(C(=O)O)cn2[C@H](CO)C(C)C [Example 36, 6-[3-chloro-2-fluoro-5-(pyridin-2-yl)benzyl]-1-((S)-1-hydroxymethyl-2-methylpropyl)-7-methoxy-4-oxo-1,4-dihydroquinoline-3-carboxylic acid] | < 0.01
COc1cc2c(cc1Cc1cc(-c3nccs3)cc(Cl)c1F)c(=O)c(C(=O)O)cn2[C@H](CO)C(C)C [Example 37, 6-[3-chloro-2-fluoro-5-(thiazol-2-yl)benzyl]-1-((S)-1-hydroxymethyl-2-methylpropyl)-7-methoxy-4-oxo-1,4-dihydroquinoline-3-carboxylic acid] | 0.01 to 0.1
CCO[C@H](C)[C@@H](CO)n1cc(C(=O)O)c(=O)c2cc(Cc3cc(N4CCOCC4)cc(Cl)c3F)c(CC)cc21 [Example 38, 6-[3-chloro-2-fluoro-5-(morpholin-4-yl)benzyl]-1-[(1R,2R)-2-ethoxy-1-(hydroxymethyl)propyl]-7-ethyl-4-oxo-1,4-dihydroquinoline-3-carboxylic acid] | < 0.01
CCOC[C@@H](CO)n1cc(C(=O)O)c(=O)c2cc(Cc3cc(N4CCCC4=O)cc(Cl)c3F)c(OC)cc21 [Example 39, 6-[3-chloro-2-fluoro-5-(2-oxopyrrolidin-1-yl)benzyl]-1-((R)-1-ethoxymethyl-2-hydroxyethyl)-7-methoxy-4-oxo-1,4-dihydroquinoline-3-carboxylic acid] | < 0.01
CCO[C@H](C)[C@@H](CO)n1cc(C(=O)O)c(=O)c2cc(Cc3cc(N4CCCC4=O)cc(Cl)c3F)c(CC)cc21 [Example 40, 6-[3-chloro-2-fluoro-5-(2-oxopyrrolidin-1-yl)benzyl]-1-[(1R,2R)-2-ethoxy-1-(hydroxymethyl)propyl]-7-ethyl-4-oxo-1,4-dihydroquinoline-3-carboxylic acid] | 0.01 to 0.1
CCc1cc2c(cc1Cc1cc(N3CCCC3=O)cc(Cl)c1F)c(=O)c(C(=O)O)cn2[C@H](CO)[C@@H](C)OC [Example 41, 6-[3-chloro-2-fluoro-5-(2-oxopyrrolidin-1-yl)benzyl]-7-ethyl-1-((1R,2R)-1-hydroxymethyl-2-methoxypropyl)-4-oxo-1,4-dihydroquinoline-3-carboxylic acid] | 0.01 to 0.1

From patent US7872004B2, “6-(heterocyclyl-substituted benzyl)-4-oxoquinoline compound and use thereof as HIV integrase inhibitor” (Japan Tobacco Inc., priority 2006, dated 2011)
